Here are results for 48 molecules from ChEMBL document CHEMBL1137357, “Further synthetic and biological studies on vitamin D hormone antagonists based on C24-alkylation and C2alpha-functionalization of 25-dehydro-1alpha-hydroxyvitamin D(3)-26,23-lactones” (J Med Chem, 2006).

The structures appear in SMILES notation.

For the assay, the target named is T1, Vitamin D3 receptor (Homo sapiens) (UniProt P11473).
T1 sequence (whole entry): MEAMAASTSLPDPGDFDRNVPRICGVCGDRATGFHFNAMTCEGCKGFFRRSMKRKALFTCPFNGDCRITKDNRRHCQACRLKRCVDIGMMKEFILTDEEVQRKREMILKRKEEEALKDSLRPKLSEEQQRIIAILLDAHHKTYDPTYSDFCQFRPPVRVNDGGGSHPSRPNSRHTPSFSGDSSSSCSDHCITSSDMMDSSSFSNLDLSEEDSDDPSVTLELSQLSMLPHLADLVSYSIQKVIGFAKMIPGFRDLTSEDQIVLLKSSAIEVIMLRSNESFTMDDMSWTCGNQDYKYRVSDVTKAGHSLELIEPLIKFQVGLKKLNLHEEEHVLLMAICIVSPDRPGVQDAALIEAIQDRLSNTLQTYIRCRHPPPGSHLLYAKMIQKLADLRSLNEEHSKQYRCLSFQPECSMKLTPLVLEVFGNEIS
In words: Antagonist activity against 1-alpha,25-dihydroxy vitamin D3-induced HL60 cell differentiation by NBT reduction method relative to TEI-9647. It counts as functional, cell-based. The arrangement: scale not given: the % may be the effect or the level left. To be noted: HL-60.
On to `C=C1/C(=C\C=C2/CCC[C@]3(C)[C@@H]([C@H](C)C[C@H]4OC(=O)C(=C)[C@@H]4CCC)CC[C@@H]23)C[C@@H](O)[C@H](C)[C@@H]1O`, for which the Activity stood at 12%.

For the molecule `C=C1/C(=C\C=C2/CCC[C@]3(C)[C@@H]([C@H](C)C[C@@H]4OC(=O)C(=C)[C@@H]4CC)CC[C@@H]23)C[C@@H](O)C[C@@H]1O`, the Activity amounted to 345%.

`C=C1/C(=C\C=C2/CCC[C@]3(C)[C@@H]([C@H](C)C[C@@H]4OC(=O)C(=C)[C@H]4CCCC)CC[C@@H]23)C[C@@H](O)[C@H](OCCCO)[C@@H]1O`: the Activity came out at 205%.

Consider `C=C1C(=O)O[C@H](C[C@@H](C)[C@H]2CC[C@H]3/C(=C/C=C4/C[C@@H](O)[C@H](OCCCO)[C@H](O)C4=C)CCC[C@]23C)[C@@H]1C`, for which the Activity was found to be 41%.

On to `C=C1C(=O)O[C@H](C[C@@H](C)[C@H]2CC[C@H]3/C(=C/C=C4/C[C@@H](O)C[C@H](O)C4=C)CCC[C@]23C)[C@@H]1C`, for which the Activity turned out to be 18%.

Consider `C=C1/C(=C\C=C2/CCC[C@]3(C)[C@@H]([C@H](C)C[C@H]4OC(=O)C(=C)[C@H]4CCC)CC[C@@H]23)C[C@@H](O)[C@H](CCCO)[C@@H]1O`, for which the Activity was found to be 117%.

`C=C1/C(=C\C=C2/CCC[C@]3(C)[C@@H]([C@H](C)C[C@@H]4OC(=O)C(=C)[C@H]4CCC)CC[C@@H]23)C[C@@H](O)[C@H](OCCCO)[C@@H]1O` yielded an Activity of 12100%.

As to `C=C1C(=O)O[C@H](C[C@@H](C)[C@H]2CC[C@H]3/C(=C/C=C4/C[C@@H](O)C[C@H](O)C4=C)CCC[C@]23C)[C@@H]1CC`, the Activity amounted to 13%.

The molecule `C=C1/C(=C\C=C2/CCC[C@]3(C)[C@@H]([C@H](C)C[C@@H]4OC(=O)C(=C)[C@@H]4CC(C)C)CC[C@@H]23)C[C@@H](O)[C@H](CCCO)[C@@H]1O` returned an Activity of 989%.

As to `C=C1/C(=C\C=C2/CCC[C@]3(C)[C@@H]([C@H](C)C[C@H]4OC(=O)C(=C)[C@H]4CC(C)C)CC[C@@H]23)C[C@@H](O)[C@H](C)[C@@H]1O`, the Activity came to 50%.

In turn, `C=C1C(=O)O[C@@H](C[C@@H](C)[C@H]2CC[C@H]3/C(=C/C=C4/C[C@@H](O)C[C@H](O)C4=C)CCC[C@]23C)[C@@H]1CCC` returned an Activity of 60%.

The molecule `C=C1/C(=C\C=C2/CCC[C@]3(C)[C@@H]([C@H](C)C[C@H]4OC(=O)C(=C)[C@@H]4CCCC)CC[C@@H]23)C[C@@H](O)C[C@@H]1O` came in with an Activity of 4%.

Turning to `C=C1/C(=C\C=C2/CCC[C@]3(C)[C@@H]([C@H](C)C[C@H]4OC(=O)C(=C)[C@@H]4CC(C)C)CC[C@@H]23)C[C@@H](O)[C@H](C)[C@@H]1O`, the Activity turned out to be 4%.

Turning to `C=C1/C(=C\C=C2/CCC[C@]3(C)[C@@H]([C@H](C)C[C@@H]4OC(=O)C(=C)[C@@H]4C)CC[C@@H]23)C[C@@H](O)[C@H](OCCCO)[C@@H]1O`, the Activity was 1970%.

As to `C=C1/C(=C\C=C2/CCC[C@]3(C)[C@@H]([C@H](C)C[C@H]4OC(=O)C(=C)[C@@H]4CC(C)C)CC[C@@H]23)C[C@@H](O)C[C@@H]1O`, the Activity came out at 5%.

Regarding `C=C1C[C@@H](C[C@@H](C)[C@H]2CC[C@H]3/C(=C/C=C4/C[C@@H](O)C[C@H](O)C4=C)CCC[C@]23C)OC1=O`, the Activity was 7%.

Molecule `C=C1/C(=C\C=C2/CCC[C@]3(C)[C@@H]([C@H](C)C[C@@H]4OC(=O)C(=C)[C@@H]4CC)CC[C@@H]23)C[C@@H](O)[C@H](C)[C@@H]1O` displayed an Activity of 1290%.

`C=C1/C(=C\C=C2/CCC[C@]3(C)[C@@H]([C@H](C)C[C@@H]4OC(=O)C(=C)[C@H]4CC(C)C)CC[C@@H]23)C[C@@H](O)[C@H](OCCCO)[C@@H]1O` had an Activity of 291%.

In turn, `C=C1/C(=C\C=C2/CCC[C@]3(C)[C@@H]([C@H](C)C[C@@H]4OC(=O)C(=C)[C@H]4CC)CC[C@@H]23)C[C@@H](O)[C@H](OCCCO)[C@@H]1O` yielded an Activity of 158%.

Molecule `C=C1C[C@@H](C[C@@H](C)[C@H]2CC[C@H]3/C(=C/C=C4/C[C@@H](O)[C@H](C)[C@H](O)C4=C)CCC[C@]23C)OC1=O` had an Activity of 38%.

As to `C=C1/C(=C\C=C2/CCC[C@]3(C)[C@@H]([C@H](C)C[C@H]4OC(=O)C(=C)[C@@H]4C)CC[C@@H]23)C[C@@H](O)[C@H](CCCO)[C@@H]1O`, the Activity was found to be 8%.

Take `C=C1/C(=C\C=C2/CCC[C@]3(C)[C@@H]([C@H](C)C[C@@H]4OC(=O)C(=C)[C@H]4CCCC)CC[C@@H]23)C[C@@H](O)[C@H](CCCO)[C@@H]1O`: the Activity worked out at 122%.

Regarding `C=C1C(=O)O[C@H](C[C@@H](C)[C@H]2CC[C@H]3/C(=C/C=C4/C[C@@H](O)C[C@H](O)C4=C)CCC[C@]23C)[C@@H]1CC(C)C`, the Activity was determined as 9%.

Consider `C=C1/C(=C\C=C2/CCC[C@]3(C)[C@@H]([C@H](C)C[C@@H]4OC(=O)C(=C)[C@@H]4CCC)CC[C@@H]23)C[C@@H](O)[C@H](CCCO)[C@@H]1O`, for which the Activity amounted to 4200%.

Take `C=C1/C(=C\C=C2/CCC[C@]3(C)[C@@H]([C@H](C)C[C@H]4OC(=O)C(=C)[C@@H]4CC(C)C)CC[C@@H]23)C[C@@H](O)[C@H](OCCCO)[C@@H]1O`: the Activity was 42%.

The molecule `C=C1/C(=C\C=C2/CCC[C@]3(C)[C@@H]([C@H](C)C[C@H]4OC(=O)C(=C)[C@@H]4CCCC)CC[C@@H]23)C[C@@H](O)[C@H](OCCCO)[C@@H]1O` yielded an Activity of 88%.

On to `C=C1/C(=C\C=C2/CCC[C@]3(C)[C@@H]([C@H](C)C[C@@H]4OC(=O)C(=C)C45CC5)CC[C@@H]23)C[C@@H](O)C[C@@H]1O`, for which the Activity was 284%.

Molecule `C=C1/C(=C\C=C2/CCC[C@]3(C)[C@@H]([C@H](C)C[C@H]4OC(=O)C(=C)[C@@H]4CC)CC[C@@H]23)C[C@@H](O)[C@H](C)[C@@H]1O` returned an Activity of 18%.

On to `C=C1C(=O)O[C@H](C[C@@H](C)[C@H]2CC[C@H]3/C(=C/C=C4/C[C@@H](O)C[C@H](O)C4=C)CCC[C@]23C)[C@@H]1CCCC`, for which the Activity was 17%.

On to `C=C1/C(=C\C=C2/CCC[C@]3(C)[C@@H]([C@H](C)C[C@@H]4OC(=O)C(=C)[C@H]4CC(C)C)CC[C@@H]23)C[C@@H](O)[C@H](C)[C@@H]1O`, for which the Activity was found to be 229%.

For the molecule `C=C1/C(=C\C=C2/CCC[C@]3(C)[C@@H]([C@H](C)C[C@@H]4OC(=O)C(=C)[C@H]4CC)CC[C@@H]23)C[C@@H](O)[C@H](CCCO)[C@@H]1O`, the Activity came to 866%.

For `C=C1/C(=C\C=C2/CCC[C@]3(C)[C@@H]([C@H](C)C[C@H]4OC(=O)C(=C)[C@@H]4CCCC)CC[C@@H]23)C[C@@H](O)[C@H](CCCO)[C@@H]1O`, the Activity stood at 303%.

In turn, `C=C1/C(=C\C=C2/CCC[C@]3(C)[C@@H]([C@H](C)C[C@@H]4OC(=O)C(=C)[C@H]4CC)CC[C@@H]23)C[C@@H](O)[C@H](C)[C@@H]1O` had an Activity of 248%.

`C=C1/C(=C\C=C2/CCC[C@]3(C)[C@@H]([C@H](C)C[C@@H]4OC(=O)C(=C)[C@@H]4CCC)CC[C@@H]23)C[C@@H](O)[C@H](C)[C@@H]1O` gave an Activity of 1540%.

With `C=C1C[C@H](C[C@@H](C)[C@H]2CC[C@H]3/C(=C/C=C4/C[C@@H](O)[C@H](CCCO)[C@H](O)C4=C)CCC[C@]23C)OC1=O`, the Activity stood at 2990%.

Take `C=C1/C(=C\C=C2/CCC[C@]3(C)[C@@H]([C@H](C)C[C@H]4OC(=O)C(=C)C45CC5)CC[C@@H]23)C[C@@H](O)C[C@@H]1O`: the Activity was < 0.3%.

In the case of `C=C1/C(=C\C=C2/CCC[C@]3(C)[C@@H]([C@H](C)C[C@@H]4OC(=O)C(=C)[C@@H]4CC)CC[C@@H]23)C[C@@H](O)[C@H](OCCCO)[C@@H]1O`, the Activity is 600%.

With `C=C1/C(=C\C=C2/CCC[C@]3(C)[C@@H]([C@H](C)C[C@H]4OC(=O)C(=C)[C@H]4CCCC)CC[C@@H]23)C[C@@H](O)[C@H](CCCO)[C@@H]1O`, the Activity amounted to 46%.

Consider `C=C1/C(=C\C=C2/CCC[C@]3(C)[C@@H]([C@H](C)C[C@@H]4OC(=O)C(=C)[C@@H]4CCC)CC[C@@H]23)C[C@@H](O)[C@H](OCCCO)[C@@H]1O`, for which the Activity stood at 85100%.

In the case of `C=C1/C(=C\C=C2/CCC[C@]3(C)[C@@H]([C@H](C)C[C@@H]4OC(=O)C(=C)[C@@H]4CC(C)C)CC[C@@H]23)C[C@@H](O)[C@H](OCCCO)[C@@H]1O`, the Activity came to 3440%.

Turning to `C=C1C(=O)O[C@@H](C[C@@H](C)[C@H]2CC[C@H]3/C(=C/C=C4/C[C@@H](O)[C@H](CCCO)[C@H](O)C4=C)CCC[C@]23C)[C@@H]1C`, the Activity came to 1510%.

In the case of `C=C1C[C@@H](C[C@@H](C)[C@H]2CC[C@H]3/C(=C/C=C4/C[C@@H](O)[C@H](OCCCO)[C@H](O)C4=C)CCC[C@]23C)OC1=O`, the Activity stood at 66%.

Turning to `C=C1C(=O)O[C@H](C[C@@H](C)[C@H]2CC[C@H]3/C(=C/C=C4/C[C@@H](O)[C@H](CCCO)[C@H](O)C4=C)CCC[C@]23C)[C@@H]1C`, the Activity came to 30%.

With `C=C1/C(=C\C=C2/CCC[C@]3(C)[C@@H]([C@H](C)C[C@@H]4OC(=O)C(=C)[C@H]4CCC)CC[C@@H]23)C[C@@H](O)[C@H](CCCO)[C@@H]1O`, the Activity amounted to 913%.

With `C=C1/C(=C\C=C2/CCC[C@]3(C)[C@@H]([C@H](C)C[C@H]4OC(=O)C(=C)[C@@H]4C)CC[C@@H]23)C[C@@H](O)C[C@@H]1O`, the Activity came to 7%.

As for `C=C1/C(=C\C=C2/CCC[C@]3(C)[C@@H]([C@H](C)C[C@@H]4OC(=O)C(=C)[C@@H]4CCCC)CC[C@@H]23)C[C@@H](O)[C@H](C)[C@@H]1O`, the Activity stood at 2910%.

Take `C=C1/C(=C\C=C2/CCC[C@]3(C)[C@@H]([C@H](C)C[C@@H]4OC(=O)C(=C)[C@H]4CC(C)C)CC[C@@H]23)C[C@@H](O)[C@H](CCCO)[C@@H]1O`: the Activity came to 388%.

The molecule `C=C1/C(=C\C=C2/CCC[C@]3(C)[C@@H]([C@H](C)C[C@@H]4OC(=O)C(=C)[C@@H]4CC)CC[C@@H]23)C[C@@H](O)[C@H](CCCO)[C@@H]1O` displayed an Activity of 442%.
